From patent US11117899B2, “[1,2,4]triazolo[1,5-c]pyrimidine derivative as A2A receptor inhibitor” (MEDSHINE DISCOVERY INC., priority 2017, dated 2021)
Values after ≈ are worked out from the molar mass of the structure shown.

Experiments:
[1] = Determination of kinetic solubility; assay type: physicochemical; settings: aqueous buffer, kinetic from dmso stock, 50 mM phosphate buffer pH 7.4, 24 hours, room temperature, 200 μM maximum
Experimental: The test compounds were dissolved in DMSO to prepare 10 mmol/L stock solutions. The stock solutions were diluted with 50% ACN/50 mM phosphate buffer (pH 7.4) to prepare standard solutions (1 μM, 20 μM, […]).
490 μL of dissolution medium (50 mM phosphate buffer solution, pH 7.4) was pipetted into a 96-well plate with a single-well volume of 2 mL using a pipette (Eppendorf Research Inc.). 10 μL of the stock solution of each test compounds and QC sample (10 mmol/L DMSO stock solution) were added to the dissolution medium, respectively, and the sample plate was sealed with a sealing film. The final concentration of the test compounds and DMSO in the sample solution were 200 μM and 2%, respectively. The mixture was shaken at 600 rpm for 24 hours at room temperature. 200 μL of the sample solution was transferred into a 96-well filter plate using a pipette and filtered with suction. The filtrate and the standard solution were detected by high performance liquid chromatography (HPLC-DAD). The concentration of the test compounds in the filtrate was calculated by an external standard method, which was the kinetic solubility of the compounds.

[2] = Pharmacokinetics in female Balb/c mice; assay type: in vivo; settings: mouse, plasma, single intravenous injection / single oral administration; for bioavailability: read-out: Bioavailability F; for AUC: read-out: Concentration integral AUC; for half-life: read-out: Half-life T1/2 (converted)
Experimental: Objective: To test the pharmacokinetics of compounds in female Balb/c mice in vivo
Balb/c mice (female, 15-30 g, 7-9 weeks old, Shanghai Lingchang)
The pharmacokinetics profile of the compounds in rodent after intravenous injection and oral administrations was tested using a standard protocol. In the assay, the candidate compound was formulated into a clear solution and administrated to the mice through a single intravenous injection, and formulated into a uniform suspension and administrated to the mice through a single oral administration. […] The whole blood samples were collected within 24 hours, centrifuged at 3000 g at 4° C. for 15 minutes, and plasma samples were obtained by separating the supernatant. 20 times volume of acetonitrile solution containing an internal standard was added to precipitate proteins. After centrifugation, the supernatant was collected, to which an equal volume of water was added, and further centrifuged to collect the supernatant. The LC-MS/MS method was used to quantitatively analyze the plasma concentration, and the pharmacokinetics parameters, such as peak concentration, peak time, clearance rate, half-life, area under the curve, and bioavailability were calculated.

[3] = biological target: T1, Human adenosine A2A receptor (Homo sapiens, UniProt P29274); experiment: Human adenosine A2A receptor calcium flux assay; assay type: cell-based; settings: A2A stable CHO cell strain, antagonist mode against agonist NECA at EC80, FLIPR Fluo-4
T1 construct: host or cells: CHO
T1 sequence (P29274 whole entry): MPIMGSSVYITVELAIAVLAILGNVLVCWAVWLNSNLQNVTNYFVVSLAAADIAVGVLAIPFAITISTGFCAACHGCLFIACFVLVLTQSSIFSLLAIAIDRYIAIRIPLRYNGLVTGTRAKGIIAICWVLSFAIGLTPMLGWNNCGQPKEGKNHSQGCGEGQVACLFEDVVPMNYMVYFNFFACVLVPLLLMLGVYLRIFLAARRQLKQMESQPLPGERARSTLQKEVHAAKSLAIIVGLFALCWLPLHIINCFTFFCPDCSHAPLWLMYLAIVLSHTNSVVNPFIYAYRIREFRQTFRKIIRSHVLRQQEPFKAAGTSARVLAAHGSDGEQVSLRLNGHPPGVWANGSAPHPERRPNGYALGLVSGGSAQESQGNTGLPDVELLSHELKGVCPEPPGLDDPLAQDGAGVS
Experimental: Human adenosine A2A receptor calcium flux assay
A2A stable cell strain was constructed by Shanghai WuXi PharmaTech, and the host cell was CHO.
Fluo-4 Direct Kit (Invitrogen, Cat. No. F10471). After the fluorescent detection reagent (specifically binding to calcium ions and causing an increase in fluorescence signal) in the kit was incubated with the cells for a suitable period of time, the compound was added to stimulate the cells to cause changes in intracellular calcium flux, thereby causing changes in the fluorescent signal, which can reflect the strength of the agonistic or inhibitory activity of the compound.
F12+10% fetal bovine serum+geneticin 300 ug/ml+blasticidin 2 ug/ml Compound dilution buffer:
Hanks Balanced Salt Buffer (Invitrogen)+20 mM HEPES, configured before each use
The test compounds were dissolved in DMSO to prepare 10 mM stock solutions. The test compounds were diluted to 0.2 mM with DMSO, and the reference compound CGS-15943 was diluted to 0.015 mM with DMSO. Next, 10 points of three-fold serial dilutions were made with ECHO. 900 nl was transferred to the compound plate (Greiner-781280), and 30 ul of compound dilution buffer was added. The final starting concentration of the test compounds was 1 uM and CGS-15943 was 0.075 uM.
Cryopreserved A2A cells were resuscitated, and then resuspended in culture medium to 1×10^6 cells/ml. The suspension was seeded into 384-well polylysine-coated cell plates (Greiner-781946) at 20 μl/well and incubated overnight in a 5% CO2 incubator at 37° C.
The cell plate prepared the day before was taken out from the incubator, and 20 ul of 2× Fluo-4 Direct™ buffer was added to each well. The plate was incubated for 50 minutes in a 5% CO2 incubator at 37° C. and allowed to stand at room temperature for 10 minutes.
Dilution of agonist NECA: 10 points of three-fold serial dilutions were made with Echo for NECA from a starting concentration of 0.15 mM. 900 nL was then transferred to the corresponding compound plate; and then 30 μl of compound dilution buffer was added to the corresponding compound plate. The final starting concentration was 750 nM.
FLIPR instrument software was run. According to the programmed procedure, 10 ul of compound dilution buffer was added to the cell plate and the fluorescence signal was read. 10 ul of the agonist reference compound at the indicated concentration was then added to the cell plate and the fluorescent signal was read. After reading, the data was exported by the “Max-Min”, “Read 90 to Maximum allowed” method in the software, and the EC80 of the A2A cell line was calculated. The agonist was prepared at a concentration of 6× EC80. A 6× EC80 concentration of a reference compound agonist of the corresponding cells was prepared with a buffer solution, and added at 30 ul/well to the corresponding compound plate for use.
FLIPR instrument software was run. According to the programmed procedure, 10 μl of the test compounds and reference compound at an indicated concentration was added to the cell plate and the fluorescence signal was read. 10 ul of the reference compound agonist at a concentration of 6× EC80 was then added to the cell plate and the fluorescent signal was read. For the agonist detection of the compounds, the data was exported by the “Max-Min”, “Read 1 to 90” method in the software. For the antagonist detection of the compound, the data was exported by the “Max-Min”, “Read 90 to Maximum allowed” method in the software. Data were analyzed by GraphPad Prism 5.0 and the IC50 values of the test compounds were calculated.

Cc1cc(-c2nnc(N)nc2-c2ccccc2)cc(C(F)(F)F)n1 [Compound A, reference compound]
solubility at 24 h [1]: 29.2 µM (≈ 9.67 µg/mL)
clearance [2]: 208 mL/min/kg
bioavailability [2]: 21.6%
AUC [2]: 0.501 µM·h
half-life [2]: 0.28 h

Cc1cc(-c2c(-c3ccccc3)nc(N)n3ncnc23)cc(C(F)(F)F)n1 [Example A-1]
IC50 [3]: 0.23 nM
solubility at 24 h [1]: 185 µM (≈ 68.5 µg/mL)
clearance [2]: 51.2 mL/min/kg
bioavailability [2]: 41.1%
AUC [2]: 3.33 µM·h
half-life [2]: 0.47 h

Cc1cc(-c2c(-c3cccc(F)c3)nc(N)n3ncnc23)cc(C(F)(F)F)n1 [Example A-2]
IC50 [3]: 0.38 nM
clearance [2]: 44.9 mL/min/kg
bioavailability [2]: 62.1%
AUC [2]: 5.93 µM·h
half-life [2]: 0.8 h

Cc1cc(-c2c(-c3cccc(F)c3F)nc(N)n3ncnc23)cc(C(F)(F)F)n1 [Example A-3]
IC50 [3]: 0.32 nM
solubility at 24 h [1]: 92.5 µM (≈ 37.6 µg/mL)

COc1ccccc1-c1nc(N)n2ncnc2c1-c1cc(C)nc(C(F)(F)F)c1 [Example A-4]
IC50 [3]: 1.08 nM
solubility at 24 h [1]: 160 µM (≈ 64.1 µg/mL)

Cc1cc(-c2c(-c3ccccc3)nc(N)n3ncnc23)cc(C)n1 [Example B-5]
IC50 [3]: 0.28 nM
solubility at 24 h [1]: 197 µM (≈ 62.3 µg/mL)
clearance [2]: 24 mL/min/kg
bioavailability [2]: 91%
AUC [2]: 19.6 µM·h
half-life [2]: 0.33 h

Nc1nc(-c2ccccc2)c(-c2cc(Cl)nc(C(F)(F)F)c2)c2ncnn12 [Example B-28]
IC50 [3]: 1.55 nM
solubility at 24 h [1]: 54.5 µM (≈ 21.3 µg/mL)

Cc1cc(-c2c(-c3ccccc3)nc(N)n3ncnc23)cc(Cl)n1 [Example B-31]
IC50 [3]: 0.28 nM
solubility at 24 h [1]: 56 µM (≈ 18.9 µg/mL)
clearance [2]: 44.3 mL/min/kg
bioavailability [2]: 17.4%
AUC [2]: 1.73 µM·h
half-life [2]: 0.25 h

Cc1cc(-c2c(-c3ccccc3)nc(N)n3nc(C(F)(F)F)nc23)cc(C(F)(F)F)n1 [Example C-1]
IC50 [3]: 1.65 nM
clearance [2]: 11.7 mL/min/kg
bioavailability [2]: 40.5%
AUC [2]: 13.2 µM·h
half-life [2]: 3.95 h

Cc1cc(-c2c(-c3ccccc3)nc(N)n3nc(C(F)(F)F)nc23)cc(C)n1 [Example C-2]
IC50 [3]: 2.97 nM
clearance [2]: 8.76 mL/min/kg
bioavailability [2]: 50.4%
AUC [2]: 24.9 µM·h
half-life [2]: 2 h

Cc1cc(-c2c(-c3ccccc3)nc(N)n3nc(CO)nc23)cc(C)n1 [Example C-19]
IC50 [3]: 0.4 nM
solubility at 24 h [1]: 194 µM (≈ 67.2 µg/mL)
clearance [2]: 38.7 mL/min/kg
bioavailability [2]: 70.7%
AUC [2]: 8.79 µM·h
half-life [2]: 0.92 h

Cc1cc(-c2c(-c3ccccc3)nc(N)n3nc(CO)nc23)cc(C(F)(F)F)n1 [Example C-33]
IC50 [3]: 0.65 nM
solubility at 24 h [1]: > 200 µM
clearance [2]: 18 mL/min/kg
bioavailability [2]: 95.2%
AUC [2]: 22 µM·h
half-life [2]: 1.2 h

Cc1cc(-c2c(-c3ccc(F)cc3)nc(N)n3nc(C(F)(F)F)nc23)cc(Cl)n1 [Example C-41]
IC50 [3]: 4.99 nM
clearance [2]: 5.53 mL/min/kg
bioavailability [2]: 41.2%
AUC [2]: 25.1 µM·h
half-life [2]: 8.04 h

Cc1cc(-c2c(-c3ccc(F)cc3)nc(N)n3nc(CO)nc23)cc(C(F)(F)F)n1 [Example C-43]
IC50 [3]: 1.36 nM
solubility at 24 h [1]: 168 µM (≈ 70.3 µg/mL)
clearance [2]: 7.51 mL/min/kg
bioavailability [2]: 82.9%
AUC [2]: 43.9 µM·h
half-life [2]: 1.99 h

Cc1cc(-c2c(-c3ccc(F)cc3)nc(N)n3nc(C)nc23)cc(C(F)(F)F)n1 [Example C-46]
IC50 [3]: 3.08 nM
solubility at 24 h [1]: 172 µM (≈ 69.2 µg/mL)
clearance [2]: 0.54 mL/min/kg
bioavailability [2]: 44%
AUC [2]: 20.1 µM·h
half-life [2]: 1.92 h

Cc1cc(-c2c(-c3ccc(F)cc3)nc(N)n3nc(C(F)(F)F)nc23)cc(C)n1 [Example C-57]
IC50 [3]: 4.49 nM
clearance [2]: 3.94 mL/min/kg
bioavailability [2]: 69.3%
AUC [2]: 71.7 µM·h
half-life [2]: 3.2 h

Nc1nc(-c2ccc(F)cc2)c(-c2cc(Cl)nc(C(F)(F)F)c2)c2nc(CO)nn12 [Example C-58]
IC50 [3]: 1.72 nM
solubility at 24 h [1]: 78.9 µM (≈ 34.6 µg/mL)
clearance [2]: 2.5 mL/min/kg
bioavailability [2]: 123%
AUC [2]: 157 µM·h
half-life [2]: 7.26 h

COCCOCc1nc2c(-c3cc(C)nc(C(F)(F)F)c3)c(-c3ccc(F)cc3)nc(N)n2n1 [Example C-68]
IC50 [3]: 0.64 nM

COCCOCc1nc2c(-c3cc(C)nc(Cl)c3)c(-c3ccc(F)cc3)nc(N)n2n1 [Example C-69]
IC50 [3]: 54.3 nM

Cc1cc(-c2c(-c3ccc(F)cc3)nc(N)n3nc(CO[C@H]4CCOC4)nc23)cc(Cl)n1 [Example C-70]
IC50 [3]: 0.59 nM

Cc1cc(-c2c(-c3ccc(F)cc3)nc(N)n3nc(CO[C@H]4CCOC4)nc23)cc(C(F)(F)F)n1 [Example C-71]
IC50 [3]: 0.82 nM

Cc1cc(-c2c(-c3ccc(C)o3)nc(N)n3nc(CO[C@H]4CCOC4)nc23)cc(C(F)(F)F)n1 [Example C-72]
IC50 [3]: 0.16 nM

Cc1cc(-c2c(-c3ccc(F)cc3)nc(N)n3nc(C#N)nc23)cc(Cl)n1 [Example C-73]
IC50 [3]: 1.73 nM

Cc1cc(-c2c(-c3ccc(C)o3)nc(N)n3nc(C#N)nc23)cc(C(F)(F)F)n1 [Example C-74]
IC50 [3]: 1.72 nM

Cc1cc(-c2c(-c3ccc(F)cc3)nc(N)n3nc(C(C)(C)O)nc23)cc(C(F)(F)F)n1 [Example C-75]
IC50 [3]: 2.03 nM

Cc1cc(-c2c(-c3ccc(F)cc3)nc(N)n3nc(C#N)nc23)cc(C(F)(F)F)n1 [Example C-76]
IC50 [3]: 5.61 nM

CC(C)(O)c1nc2c(-c3cc(Cl)nc(C(F)(F)F)c3)c(-c3ccc(F)cc3)nc(N)n2n1 [Example C-77]
IC50 [3]: 6.84 nM

Cc1cc(-c2c(-c3ccc(F)cc3)nc(N)n3nc(C(C)(C)O)nc23)cc(Cl)n1 [Example C-78]
IC50 [3]: 0.77 nM

N#Cc1nc2c(-c3cc(Cl)nc(C(F)(F)F)c3)c(-c3ccc(F)cc3)nc(N)n2n1 [Example C-79]
IC50 [3]: 16.9 nM

Cc1cc(-c2c(-c3ccccc3)nc(N)n3nc(C(=O)O)nc23)cc(C(F)(F)F)n1 [Example C-80]
IC50 [3]: 1.82 nM
